Source: patent US20050222134A1, “Crystalline forms of 5, 11-dihydro-11-ethyl-5-methyl-8-{2-{(1-oxido-4-quinolinyl)oxy}ethyl}-6H-dipyrido[3,2-b:2',3'-e] [1,4]diazepin-6-one” (Boehringer Ingelheim International GmbH, priority 2004, published 2005)

Legend:
[1] = Solubility experiments used to determine the phase diagram of the crystalline forms; type: physicochemical; details: 25° C.; for water content of ethanol solution in contact with which the form is thermodynamically favored over the other forms: ethanol solutions saturated with the compound, compared with the dihydrate, anhydrous Form I and Form III
Experimental: Solubility experiments were used to determine the unique phase diagram shown in FIG. 5 for the various forms of 5,11-dihydro-11-ethyl-5-methyl-8-{2-{(1-oxido-4-quinolinyl)oxy}ethyl}-6H-dipyrido[3,2-b:2′,3′-e][1,4]diazepin-6-one. […] Additionally, anhydrous Form III is thermodynamically favored over the dihydrate and anhydrous Form I at 25° C. when in contact with ethanol solutions containing<˜2.7±0.5 wt % water.

[2] = Phase stability of crystalline forms at ambient / storage conditions; type: physicochemical
Description: A first aspect of the present invention comprises the discovery of a dihydrate crystalline form of 5,11-dihydro-11-ethyl-5-methyl-8-{2-{(1-oxido-4-quinolinyl)oxy}ethyl}-6H-dipyrido[3,2-b:2′,3′-e][1,4]diazepin-6-one. […] The invention also comprises methods for making this dihydrate crystalline form.
(§1) We have further discovered that under proper conditions several anhydrous polymorphs of 5,11-dihydro-11-ethyl-5-methyl-8-{2-{(1-oxido-4-quinolinyl)oxy} ethyl}-6H-dipyrido[3,2-b:2′,3′-e][1,4]diazepin-6-one may be formed. […] Thus, the invention further includes anhydrous Form III of 5,11-dihydro-11-ethyl-5-methyl-8-{2-{(1-oxido-4-quinolinyl)oxy}ethyl}-6H-dipyrido[3,2-b:2′,3′-e][1,4]diazepin-6-one and methods for its manufacture.

[3] = Biological testing of plasma levels of crystalline forms; type: in vivo; details: compared with other crystalline forms of the drug
Description: as §1

| water content of ethanol solution in contact with which the form is thermodynamically favored over the other forms [1] | melting point | phase stability ([2]; some tested ambient conditions) | water content of ethanol solution in contact with which the form is thermodynamically favored over the other forms ([1]; dihydrate) | thermodynamic or kinetic preference on storage ([2]; temperatures and humidities most likely encountered on storage of drug substance or drug product, compared with the trihydrate) | Compound | thermodynamic preference between crystalline forms (phase diagram) [1] | plasma levels [3] |
| --- | --- | --- | --- | --- | --- | --- | --- |
| < 2.7±0.5 wt % water | 198.2 °C | demonstrated phase stability | – | – | CCN1c2ncc(CCOc3cc[n+]([O-])c4ccccc34)cc2C(=O)N(C)c2cccnc21 [anhydrous Form III, 5,11-dihydro-11-ethyl-5-methyl-8-{2-{(1-oxido-4-quinolinyl)oxy}ethyl}-6H-dipyrido[3,2-b:2′,3′-e][1,4]diazepin-6-one Anhydrous Form III] | thermodynamically preferred over anhydrous Form I | higher plasma levels than are attainable using other crystalline forms |
| – | – | – | > 2.7 wt % water | thermodynamically or kinetically favored | CCN1c2ncc(CCOc3cc[n+]([O-])c4ccccc34)cc2C(=O)N(C)c2cccnc21 [dihydrate, 5,11-dihydro-11-ethyl-5-methyl-8-{2-{(1-oxido-4-quinolinyl)oxy}ethyl}-6H-dipyrido[3,2-b:2′,3′-e][1,4]diazepin-6-one dihydrate] | – | – |
| – | 199 °C | – | – | – | CCN1c2ncc(CCOc3cc[n+]([O-])c4ccccc34)cc2C(=O)N(C)c2cccnc21 (hydrate or solvate) [dihydrate, 5,11-dihydro-11-ethyl-5-methyl-8-{2-{(1-oxido-4-quinolinyl)oxy}ethyl}-6H-dipyrido[3,2-b:2′,3′-e][1,4]diazepin-6-one dihydrate] | – | – |
